Patent US7932284B2, “Indole sulfonamide modulators of progesterone receptors” (Eli Lilly and Company, priority 2006, dated 2011)

How the values were obtained:
[1] = biological target: T1, human GR (glucocorticoid receptor) (Homo sapiens, UniProt P04150); test: GR competition binding assay (HEK293 cell lysate); details: 0.3 nM 3H-dexamethasone, 293-GR lysate
T1 construct: expressed in transfected cells; host or cells: HEK293
T1 sequence (P04150 1-777): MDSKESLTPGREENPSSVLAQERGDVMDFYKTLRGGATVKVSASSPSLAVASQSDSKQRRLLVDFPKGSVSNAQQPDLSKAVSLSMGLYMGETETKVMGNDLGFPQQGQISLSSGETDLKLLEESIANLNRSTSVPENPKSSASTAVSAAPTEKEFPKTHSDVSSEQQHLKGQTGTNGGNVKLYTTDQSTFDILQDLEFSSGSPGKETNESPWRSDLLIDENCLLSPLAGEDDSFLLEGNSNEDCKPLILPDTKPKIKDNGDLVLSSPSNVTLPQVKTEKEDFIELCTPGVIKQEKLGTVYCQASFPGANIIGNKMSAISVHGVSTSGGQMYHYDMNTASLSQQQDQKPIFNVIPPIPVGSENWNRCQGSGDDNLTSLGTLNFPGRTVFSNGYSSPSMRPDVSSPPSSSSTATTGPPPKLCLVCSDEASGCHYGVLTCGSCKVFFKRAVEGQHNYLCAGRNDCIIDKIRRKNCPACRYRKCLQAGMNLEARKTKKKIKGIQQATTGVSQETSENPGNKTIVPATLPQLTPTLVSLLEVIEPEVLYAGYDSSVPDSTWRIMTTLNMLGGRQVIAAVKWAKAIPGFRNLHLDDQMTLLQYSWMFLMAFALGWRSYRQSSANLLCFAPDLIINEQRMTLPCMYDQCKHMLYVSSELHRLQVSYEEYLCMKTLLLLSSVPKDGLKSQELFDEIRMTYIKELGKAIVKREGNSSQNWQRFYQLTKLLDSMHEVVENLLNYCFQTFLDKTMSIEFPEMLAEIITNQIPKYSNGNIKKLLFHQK
Experimental: (§1) Cell lysates from HEK293 cells overexpressing human GR (glucocorticoid receptor), AR (androgen receptor), MR (mineralocorticoid receptor) or PR (progesterone receptor) are used for competition binding assays to determine Ki values for compounds of interest. Briefly, competition binding assays are run in a buffer containing 20 mM HEPES, pH 7.6, 0.2 mM EDTA, 75 mM NaCl, 1.5 mM MgCl2, 20% glycerol, 20 mM sodium molybdate, 0.2 mM DTT, 20 ug/ml aprotinin, and 20 ug/ml leupeptin, using either 0.3 nM ^3H-dexamethasone for GR binding, 0.36 nM ^3H-methyltrienolone for AR binding, 0.25 nM ^3H-aldosterone for MR binding, or 0.29 nM ^3H-methyltrienolone for PR binding, and either 20 ug 293-GR lysate, 22 ug 293-AR lysate, 20 ug 293-MR lysate or 40 ug 293-PR lysate per well. Competing compounds are added at various concentrations in half-log increments. Non-specific binding is determined in the presence of 500 nM dexamethasone for GR binding, 500 nM aldosterone for MR binding, or 500 nM methyltrienolone for AR and PR binding. The binding reaction (140 μl) is incubated overnight at 4° C., then 70 μl of cold charcoal-dextran buffer (containing per 50 ml of assay buffer, 0.75 g of charcoal and 0.25 g of dextran) is added to each reaction. Plates are mixed 8 minutes on an orbital shaker at 4° C. Plates are then centrifuged at 3,000 rpm at 4° C. for 10 minutes. An aliquot of 120 μl of the mixture is transferred to another 96-well plate and 175 μl of Wallac Optiphase “Hisafe 3” scintillation fluid is added to each well. Plates are sealed and shaken vigorously on an orbital shaker. After an incubation of 2 hrs, plates are read in a Wallac Microbeta counter. […] The Kd for ^3H-dexamethasone for GR binding, ^3H-methyltrienolone for AR binding, ^3H-aldosterone for MR binding, or ^3H-methyltrienolone for PR binding, is determined by saturation binding. The IC50 values for compounds are converted to Ki using Cheng-Prusoff equation and the Kd determined by saturation binding assay.

[2] = biological target: T2, human MR (mineralocorticoid receptor) (Homo sapiens, UniProt P08235); test: MR competition binding assay (HEK293 cell lysate); details: 0.25 nM 3H-aldosterone, 293-MR lysate
T2 construct: expressed in transfected cells; host or cells: HEK293
T2 sequence (P08235 1-984): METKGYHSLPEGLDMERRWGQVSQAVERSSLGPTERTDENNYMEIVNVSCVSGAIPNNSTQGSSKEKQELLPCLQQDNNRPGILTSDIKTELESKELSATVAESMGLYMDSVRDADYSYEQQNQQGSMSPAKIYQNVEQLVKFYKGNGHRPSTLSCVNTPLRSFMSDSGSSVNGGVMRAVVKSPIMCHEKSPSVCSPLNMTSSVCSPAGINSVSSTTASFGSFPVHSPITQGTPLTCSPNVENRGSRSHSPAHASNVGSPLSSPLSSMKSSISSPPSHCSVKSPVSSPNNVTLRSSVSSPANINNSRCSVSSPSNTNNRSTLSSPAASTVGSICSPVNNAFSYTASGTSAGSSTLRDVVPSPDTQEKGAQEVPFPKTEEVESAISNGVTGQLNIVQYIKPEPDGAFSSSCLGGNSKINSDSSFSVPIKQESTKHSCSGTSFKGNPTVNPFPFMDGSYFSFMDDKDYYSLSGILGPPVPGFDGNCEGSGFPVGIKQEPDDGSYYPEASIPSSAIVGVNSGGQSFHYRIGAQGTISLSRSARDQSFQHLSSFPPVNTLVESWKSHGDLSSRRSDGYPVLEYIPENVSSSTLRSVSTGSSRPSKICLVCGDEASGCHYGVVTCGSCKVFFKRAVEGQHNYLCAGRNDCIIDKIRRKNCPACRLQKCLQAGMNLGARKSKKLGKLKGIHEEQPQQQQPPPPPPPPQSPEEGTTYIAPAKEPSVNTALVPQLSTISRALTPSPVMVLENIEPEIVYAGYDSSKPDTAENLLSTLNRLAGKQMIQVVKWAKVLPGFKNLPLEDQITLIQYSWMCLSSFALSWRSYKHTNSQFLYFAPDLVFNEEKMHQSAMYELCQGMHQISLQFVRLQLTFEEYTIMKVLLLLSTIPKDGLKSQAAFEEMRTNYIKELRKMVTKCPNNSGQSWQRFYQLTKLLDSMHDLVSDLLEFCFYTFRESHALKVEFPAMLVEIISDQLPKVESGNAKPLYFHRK
Experimental: as §1

SMILES | Ki [1] [nM] | Ki [2] [nM]
Cn1cc(-c2ccc(C#N)cc2)c2ccc(NS(C)(=O)=O)cc21 [Example 25, N-[3-(4-Cyano-phenyl)-1-methyl-1H-indol-6-yl]-methanesulfonamide] | > 1000 | > 1000
CC(C)n1cc(-c2ccc(C#N)cc2)c2ccc(NS(C)(=O)=O)cc21 [Example 28, N-[3-(4-Cyano-phenyl)-1-isopropyl-1H-indol-6-yl]-methanesulfonamide] | > 1000 | > 1000
CC(C)Cn1cc(-c2ccc(C#N)cc2)c2ccc(NS(C)(=O)=O)cc21 [Example 29, N-[3-(4-Cyano-phenyl)-1-isobutyl-1H-indol-6-yl]-methanesulfonamide] | 100 to 500 | 500 to 1000
Cn1cc(-c2ccc([N+](=O)[O-])cc2)c2ccc(NS(C)(=O)=O)cc21 [Example 30, N-[1-Methyl-3-(4-nitro-phenyl)-1H-indol-6-yl]-methanesulfonamide] | > 1000 | > 1000
Cn1cc(-c2ccc(C#N)cc2)c2ccc(NS(=O)(=O)c3cccs3)cc21 [Example 32, Thiophene-2-sulfonic acid [3-(4-cyano-phenyl)-1-methyl-1H-indol-6-yl]-amide] | > 1000 | > 1000
CC(C)n1cc(-c2ccc(Cl)cc2)c2ccc(NS(C)(=O)=O)cc21 [Example 36, N-[3-(4-Chloro-phenyl)-1-isopropyl-1H-indol-6-yl]-methanesulfonamide] | > 1000 | > 1000
CC(C)n1cc(-c2ccc(C#N)c(F)c2)c2ccc(NS(C)(=O)=O)cc21 [Example 38, N-[3-(4-Cyano-3-fluoro-phenyl)-1-isopropyl-1H-indol-6-yl]-methanesulfonamide] | > 1000 | 500 to 1000
CC(C)n1cc(-c2ccc(C#N)s2)c2ccc(NS(C)(=O)=O)cc21 [Example 43, N-[3-(5-Cyano-thiophen-2-yl)-1-isopropyl-1H-indol-6-yl]-methanesulfonamide] | > 1000 | 100 to 500
CS(=O)(=O)Nc1ccc2c(-c3ccc(C#N)cc3)cn(C3CCCC3)c2c1 [Example 63, N-[3-(4-Cyano-phenyl)-1-cyclopentyl-1H-indol-6-yl]-methanesulfonamide] | > 1000 | > 1000
CS(=O)(=O)Nc1ccc2c(-c3ccc(C#N)cc3)cn(Cc3ccccc3)c2c1 [Example 72, N-[1-Benzyl-3-(4-cyano-phenyl)-1H-indol-6-yl]-methanesulfonamide] | 50 to 100 | < 50
CCOC(=O)c1ccc(-c2cn(C(C)C)c3cc(NS(C)(=O)=O)ccc23)cc1 [Example 74, 4-(1-Isopropyl-6-methanesulfonylamino-1H-indol-3-yl)-benzoic acid ethyl ester] | > 1000 | 100 to 500
CS(=O)(=O)Nc1ccc2c(-c3ccc(C#N)cc3)cn(CC3CCCCC3)c2c1 [Example 77, N-[3-(4-Cyano-phenyl)-1-cyclohexylmethyl-1H-indol-6-yl]-methanesulfonamide] | 100 to 500 | 100 to 500

Further lines, results first:

Ki [1] [nM] | Ki [2] [nM] | SMILES
100 to 500 | 100 to 500 | CC(C)n1cc(-c2ccc(C#N)n2C)c2ccc(NS(C)(=O)=O)cc21 [Example 78, N-[3-(5-Cyano-1-methyl-1H-pyrrol-2-yl)-1-isopropyl-1H-indol-6-yl]-methanesulfonamide]
> 1000 | 500 to 1000 | CSc1ccc(-c2cn(C(C)C)c3cc(NS(C)(=O)=O)ccc23)cc1 [Example 83, N-[1-Isopropyl-3-(4-methylsulfanyl-phenyl)-1H-indol-6-yl]-methanesulfonamide]
> 1000 | 500 to 1000 | Cc1ccc(-c2cn(C(C)C)c3cc(NS(C)(=O)=O)ccc23)cc1F [Example 84, N-[3-(3-Fluoro-4-methyl-phenyl)-1-isopropyl-1H-indol-6-yl]-methanesulfonamide]
> 1000 | 500 to 1000 | CC(C)n1cc(-c2ccccc2)c2ccc(NS(C)(=O)=O)cc21 [Example 85, N-(1-Isopropyl-3-phenyl-1H-indol-6-yl)-methanesulfonamide]
> 1000 | > 1000 | COc1ccc(-c2cn(C(C)C)c3cc(NS(C)(=O)=O)ccc23)cc1C [Example 86, N-[1-Isopropyl-3-(4-methoxy-3-methyl-phenyl)-1H-indol-6-yl]-methanesulfonamide]
> 1000 | > 1000 | CC(C)n1cc(-c2ccc(C(N)=O)cc2)c2ccc(NS(C)(=O)=O)cc21 [Example 87, 4-(1-Isopropyl-6-methanesulfonylamino-1H-indol-3-yl)-benzamide]
> 1000 | > 1000 | COc1ccc(-c2cn(C(C)C)c3cc(NS(C)(=O)=O)ccc23)cn1 [Example 88, N-[1-Isopropyl-3-(6-methoxy-pyridin-3-yl)-1H-indol-6-yl]-methanesulfonamide]
> 1000 | 100 to 500 | CC(C)n1cc(-c2ccc(O)cc2)c2ccc(NS(C)(=O)=O)cc21 [Example 93, N-[3-(4-Hydroxy-phenyl)-1-isopropyl-1H-indol-6-yl]-methanesulfonamide]
> 1000 | 500 to 1000 | CC(C)n1cc(-c2ccc(C=NO)cc2)c2ccc(NS(C)(=O)=O)cc21 [Example 94, N-{3-[4-(Hydroxyimino-methyl)-phenyl]-1-isopropyl-1H-indol-6-yl}-methanesulfonamide]
> 1000 | 500 to 1000 | CC(C)n1cc(-c2ccc3sccc3c2)c2ccc(NS(C)(=O)=O)cc21 [Example 95, N-(3-Benzo[b]thiophen-5-yl-1-isopropyl-1H-indol-6-yl)-methanesulfonamide]
> 1000 | > 1000 | CC(C)n1cc(-c2ccc3oc(=O)ccc3c2)c2ccc(NS(C)(=O)=O)cc21 [Example 96, N-[1-Isopropyl-3-(2-oxo-2H-chromen-6-yl)-1H-indol-6-yl]-methanesulfonamide]
